Results published in patent US7473524B2, “Mutational profiles in HIV-1 protease correlated with phenotypic drug resistance” (priority 2002, dated 2009).

Legend:
Assay type in all cases: cell-based
[1] = test system: HIV-1/LAI; test: Antiviral activity in acutely infected MT4 cells, wild-type reference strain; conditions: for EC50: Human immunodeficiency virus 1, wild-type HIV-1/LAI, no selection, MT4 cells, read-out: median(EC50 (μM)); for Fold resistance: wild-type HIV-1/LAI (reference), ratio of EC50 to wild type
Method: (§1) Determination of the antiviral activity of a compound was done as described in Pauwels R. et al. (J Virol Methods 1988; 20(4):309-21). Various concentrations of the test compounds were brought into each well of a flat-bottom microtiter plate. Subsequently, HIV and MT4 cells were added to a final concentration of 200-250 50% cell culture infectious doses (CCID50)/well and 30,000 cells/well, respectively. After 5 days of incubation (37° C., 5% CO2), the cytopathic effect of the replicating virus was determined by the tetrazolium colorimetric MTT method. The dose protecting 50% of the cells from virus cytopathic effect was defined as the EC50, while the dose achieving 90% protection was defined as the EC90.
(§2) The reporter gene assay used MT4-LTR-EGFP cells. Upon infection by HIV-1, the expression of the viral tat product increases transcription from the HIV-1 LTR promoter, leading to high-level expression of the reporter gene product. The assay procedure was similar to the CPE assay except for the end reading of the assay, which was performed on day 3 by measuring the relative fluorescence of treated cultures and comparing this with the relative fluorescence of untreated cultures. The EC50 or the EC90 of a compound was defined as the concentration that inhibited the relative fluorescence by 50% or 90% respectively.
(§3) The in vitro antiviral activity of compound 1 and current reverse transcriptase inhibitors against the selected strains was evaluated in acutely infected MT4 cells. Median EC50 values together with the fold change in resistance (expressed as a ration of EC50) as compared to wild type (FC) are reported.

[2] = test system: HIV-1/LAI-derived strain L100L/I, Y181C, T386A; test: Antiviral activity in acutely infected MT4 cells, strain selected at high MOI with compound 1 0.200 μM; conditions: for EC50: Human immunodeficiency virus 1, MT4, 600 h, day 25, read-out: median(EC50 (μM)); for Fold resistance: day 25, vs wild type
Method: as §1, §2
(§4) Cells are infected at a high MOI (such as 1-50 CCID50/cell), corresponding to >10^9 viral RNA copies/ml. These experiments have been designed to mimic the quasi-species variability that is observed in HIV infected individuals where 10^9 to 10^10 new viruses are produced daily with a mutation rate of 10^−4 to 10^−5. The infected MT4-LTR-EGFP cells are treated with inhibitors at 40, 200 nM, 1 μM and higher for a maximum of 30 days. The cultures are subcultivated and scored on virus-induced fluorescence and cytopathicity every 3-4 days. If full virus breakthrough (100% CPE) is observed the supernatants was collected and stored (new virus strain). If no full CPE was observed the cells were subcultivated and further grown in the presence of the same concentration compound till full virus breakthrough, with a maximum of 30 days. From the emerging virus populations a virus stock was grown in the absence of compounds and titrated. The sensitivities of the isolated strains to HIV-1 RT inhibitors were determined and the strains were genotyped.
as §3

[3] = test system: HIV-1/LAI-derived strain Y181C, T386A; test: Antiviral activity in MT4 cells, low MOI strain selected at 0.040 μM, day 15; conditions: Comp. 1 0.040 μM; for Fold resistance: vs wild type; for EC50: Human immunodeficiency virus 1, MT4, 360 h, read-out: median(EC50 (μM))
Method: as §1, §2
(§5) MT4-LTR-EGFP cells were infected at a multiplicity of infection (MOI) of 0.01 to 0.001 CCID50/cell in the presence of inhibitor. The cultures were sub-cultivated and scored microscopically on virus-induced fluorescence and cytopathogenicity every 3-4 days. The cultures were sub-cultivated in the presence of the same compound concentration until signs of virus replication were observed. The escaping virus was further cultivated in the presence of the same inhibitor concentration in order to enrich the population in resistant variants. If full virus breakthrough was observed the supernatant was collected and stored (new virus strain). Afterwards, the same virus was challenged with a higher compound concentration in order to select variants able to grow in the presence of as high as possible inhibitor concentrations. From the new viruses, a virus stock was grown in the absence of inhibitor.
as §3

[4] = test system: HIV-1/LAI-derived strain E006E/K, Y181C, M230I, T386A; test: Antiviral activity in MT4 cells, low MOI strain selected at 0.200 μM, day 22; conditions: Comp. 1 0.200 μM; for Fold resistance: vs wild type; for EC50: Human immunodeficiency virus 1, MT4, 528 h, read-out: median(EC50 (μM))
Method: as §1, §2, §5, §3

[5] = test system: HIV-1/LAI-derived strain M164M/I, Y181C, D186D/N, M230M/I, T386A; test: Antiviral activity in MT4 cells, low MOI strain selected at 0.200 μM, day 28; conditions: Comp. 1 0.200 μM; for Fold resistance: vs wild type; for EC50: Human immunodeficiency virus 1, MT4, 672 h, read-out: median(EC50 (μM))
Method: as §1, §2, §5, §3

[6] = test system: HIV-1/LAI-derived strain Y181C, G190E, T386A; test: Antiviral activity in MT4 cells, low MOI strain selected at 1.000 μM, day 35; conditions: for Fold resistance: Comp. 1 1.000 μM, vs wild type; for EC50: Human immunodeficiency virus 1, MT4, Comp. 1 1.000 μM, read-out: median(EC50 (μM))
Method: as §1, §2, §5, §3

[7] = test system: HIV-1/LAI-derived strain I031L/I, Y181C, G190E, T386A; test: Antiviral activity in MT4 cells, low MOI strain selected at 5.000 μM, day 35; conditions: for Fold resistance: Comp. 1 5.000 μM, vs wild type; for EC50: Human immunodeficiency virus 1, MT4, Comp. 1 5.000 μM, read-out: median(EC50 (μM))
Method: as §1, §2, §5, §3

[8] = test system: HIV-1/LAI-derived strain I031L/I, F116F/L, Y181C, G190E, T386A; test: Antiviral activity in MT4 cells, low MOI strain selected at 5.000 μM, day 42; conditions: for Fold resistance: Comp. 1 5.000 μM, vs wild type; for EC50: Human immunodeficiency virus 1, MT4, Comp. 1 5.000 μM, read-out: median(EC50 (μM))
Method: as §1, §2, §5, §3

[9] = test system: HIV-1/LAI-derived strain I031L, A062A/V, Y181C, G190E, T386A; test: Antiviral activity in MT4 cells, low MOI strain selected at 15.000 μM, day 42; conditions: for Fold resistance: Comp. 1 15.000 μM, vs wild type; for EC50: Human immunodeficiency virus 1, MT4, Comp. 1 15.000 μM, read-out: median(EC50 (μM))
Method: as §1, §2, §5, §3

[10] = test system: HIV-1/LAI-derived strain I031L, A062A/V, L074L/V, Y181C, G190E, T386A; test: Antiviral activity in MT4 cells, low MOI strain selected at 15.000 μM, day 59; conditions: for Fold resistance: Comp. 1 15.000 μM, vs wild type; for EC50: Human immunodeficiency virus 1, MT4, Comp. 1 15.000 μM, read-out: median(EC50 (μM))
Method: as §1, §2, §5, §3

[11] = test system: HIV-1/LAI; test: In vitro selection of resistant strains, high MOI, MT4-LTR-EGFP cells; conditions: starting strain LAI, 0.200 μM, emerging L100L/I, Y181C, T386A
Method: as §4
(§6) In vitro drug selection experiments starting from wild-type HIV-1/LAI under pressure of compound 1, Efavirenz and Nevirapine have been performed.

[12] = test system: HIV-1/LAI; test: In vitro selection of resistant strains, low MOI, MT4-LTR-EGFP cells; conditions: Y181C, T386A
From the text: as §5, §6

SMILES | EC50 [1] | Fold resistance [1] | EC50 [2] | Fold resistance [2] | Fold resistance [3] | EC50 [3] | Fold resistance [4] | EC50 [4] | Fold resistance [5] | EC50 [5] | Fold resistance [6] | EC50 [6] | Fold resistance [7] | EC50 [7] | Fold resistance [8] | EC50 [8] | Fold resistance [9] | EC50 [9] | Fold resistance [10] | EC50 [10] | other results
Cc1cc(C#N)cc(C)c1Oc1nc(Nc2ccc(C#N)cc2)nc(N)c1Br [Compound 1, Benzonitrile, 4-[[6-amino-5-bromo-2-[(4-cyanophenyl)-amino]-4-pyrimidinyl]oxy]-3,5-dimethyl-] | 0.0014 µM | 1 fold | 0.11 µM | 78 fold | 24 fold | 0.0334 µM | 21 fold | 0.0298 µM | 16 fold | 0.0228 µM | 155 fold | 0.217 µM | 282 fold | 0.394 µM | 90 fold | 0.126 µM | 441 fold | 0.618 µM | >7,143 fold | > 10 µM | Days to breakthrough [11]: day 25; Days to breakthrough ([12]; 0.040 μM): day 15; Days to breakthrough ([12]; 0.200 μM, E006E/K, M230I): day 22; Days to breakthrough ([12]; 0.200 μM, M164M/I, D186D/N, M230M/I): day 28; Days to breakthrough ([12]; 1.000 μM, G190E): day 35; Days to breakthrough ([12]; 5.000 μM, I031L/I, F116F/L, G190E): day 42; Days to breakthrough ([12]; 5.000 μM, I031L/I, G190E): day 35; Days to breakthrough ([12]; 15.000 μM, I031L, A062A/V, L074L/V, G190E): day 59; Days to breakthrough ([12]; 15.000 μM, I031L, A062A/V, G190E): day 42
O=C1Nc2ccc(Cl)cc2[C@@](C#CC2CC2)(C(F)(F)F)O1 [Efavirenz] | 0.001 µM | 1 fold | 0.208 µM | 208 fold | 7 fold | 0.0067 µM | 7 fold | 0.0067 µM | 7 fold | 0.0072 µM | 46 fold | 0.0465 µM |  |  | 44 fold | 0.0442 µM | 209 fold | 0.209 µM | >10,000 fold | > 10 µM | 
Cc1ccnc2c1NC(=O)c1cccnc1N2C1CC1 [Nevirapine] | 0.0763 µM | 1 fold |  |  | >131 fold | > 10 µM | >131 fold | > 10 µM | >131 fold | > 10 µM | >131 fold | > 10 µM | >131 fold | > 10 µM | >131 fold | > 10 µM | >131 fold | > 10 µM | >131 fold | > 10 µM | 
